{
  "source": "patent US6406679B1",
  "about": "“Use of HL-60-related lectins in drug delivery and detection of lectin-expressing cells” (Incyte Pharmaceuticals, Inc., priority 1992, dated 2002)",
  "key": {"[1]": {"system": "Rat lymph node lymphocytes", "assay": "Agglutination of cells treated with lectin", "assay_type": "cell-based", "details": "250 μg/ml lectin, on ice 30 min", "method": "(§1) To analyze the mechanism of action of the inventive lectins as immunomodulators, a test was devised to discover whether these lectins bind lymphocytes and/or T-cells to endothelial cells. Thin sections of tissue containing inflamed rat brain vascular endothelium were prepared. Rat lymph node lymphocytes and human T-cells of the Jurkat line (10^7/ml in Dulbecco's modified Eagle medium (MEM) with 5% fetal bovine serum (FBS)) were treated with 250 μg/ml of the lectin of Example 1, with the lectin plus 1 mM beta-lactose, or with no additions and subsequently were placed on ice for 30 min. […] These effects were not observed when beta-lactose was added or when there were no additions."}, "[2]": {"system": "human T-cells of the Jurkat line", "assay": "Agglutination of cells treated with lectin", "assay_type": "cell-based", "details": "250 μg/ml lectin, on ice 30 min", "method": "as §1"}, "[3]": {"system": "Jurkat T-cells on inflamed rat brain vascular endothelium", "assay": "Binding to inflamed brain endothelium sections", "assay_type": "cell-based, human", "details": "250 μg/ml lectin"}, "[4]": {"system": "rat lymphocytes", "assay": "Binding to sections of lymphoid organs (lymph nodes and Peyer's patch)", "assay_type": "cell-based", "details": "control level binding very low, result cannot be relied on", "method": "Sections of lymphoid organs (lymph nodes and Peyer's patch) were tested as above."}, "[5]": {"system": "T-cell lines MOLT4 and ARR on thymic epithelial cells", "assay": "Binding of cultured T-cells to thymic epithelial cells (DPM)", "assay_type": "cell-based, human", "details": "lectin-treated T-cells with terminal galactose residues, FIG. 4", "method": "The effects of the lectin on the binding of cultured T-cells to thymic epithelial cells were further tested according to the protocol of Singer et al., (Proc. Natl. Acad. Sci. (1986) 83:6588-92). T-cell lines MOLT4 and ARR (a T-cell line with sialic-acid-terminating glycoproteins) were incubated with tritiated thymidine. Next, the cells were treated with neuraminidase (which cleaves terminal sialic acids from the glycoproteins on ARR cells and leaves terminal galactose), galactosidase, endolactosaminidase or no enzyme. After this step, they cells were incubated with and without lectin. All the treatment and control groups of T-cells were layered over thymic epithelial cells, incubated and washed as described in Singer et al. Lastly, the amount of bound T-cells was quantitated by […] per minute (DPM)."}, "[6]": {"system": "BALB/c mice", "assay": "Primary immune response: serum antibody levels", "assay_type": "in vivo, mouse", "method": "The effect of coadministration of lectin on the B-cell repertoire mounted as a primary response to immunization was also tested directly by antibody formation in the sera. Immunoassays for antibody content for the various antigens were performed as follows:\nFor immunization with Torpedo acetylcholine receptor, microtiter: wells were coated overnight with 100 μl of a solution containing 5 μg/ml of purified receptor as prepared in Example 8, Part A, and incubated with serum (diluted 1/25) for 3 hours at 37° C. After washing, the plates were incubated for 3 hours at 37° C. with alkaline phosphatase-conjugated goat anti-mouse immunoglobulins. The plates were then washed extensively and incubated for 1 hour at 37° C. with […] ethanolamine buffer. The reaction was stopped by addition of 25 μl of 3 M NaOH, and the binding of the labeled antibody was measured in an ELISA microreader at 405 nm. […]\nFor antibodies against mouse AChR, antibodies were determined using as antigen a complex between a partially purified normal mouse skeletal muscle receptor and ^125I-alpha-bungarotoxin. […]\n. […] The reaction was stopped by addition of 25 μl of 3 M NaOH, and the binding of the labeled antibody was measured in an ELISA microreader at 405 nm. […]\n. Blood was obtained after 3 days and again after 1, 2, 3 and 4 weeks and antibody levels were determined as described above."}, "[7]": {"system": "lymph node cells", "assay": "Proliferative response of draining lymph node cells of GPBP/CFA-injected rats", "assay_type": "in vivo, rat", "method": "At the indicated times after injection of 50 μg GPBP/CFA, lymph nodes draining the site of injection were collected and tested for a proliferative response to GPBP, purified protein derivative (PPD), and the T-cell mitogen, Concanavalin A (ConA). Consistent with the DTH test, lymph node cells of the lectin-treated rats had low or absent responses to both GPBP and PPD relative to control rats, especially on days 14 and 21 during which EAE onset occurs."}, "[8]": {"assay": "Antibodies specific for the lectin in sera of treated rats (ELISA)", "assay_type": "in vivo, rat"}, "[9]": {"system": "established T-cell lines", "assay": "Lectin added to established T-cell lines", "assay_type": "cell-based, rat", "details": "lectin added in vitro", "source_text": "In a follow-up experiment, T-cell lines were selected from the draining lymph nodes."}, "[10]": {"system": "Lewis rats", "assay": "Rat heart transplantation, lectin combined with cyclosporin", "assay_type": "in vivo", "details": "Group A: Cyclosporin 0, Lectin 2.5 mg/kg/day", "source_text": "The heart transplant model of paragraph A was used. Five groups of 5 Lewis rats received hearts from Brown Norway rats and were given the following drugs by group, as shown in Table 8:\nCyclosporin i.p. was started the day of the graft and continued daily. Recombinant lectin was started two days prior to transplant and continued daily."}, "[11]": {"system": "rats", "assay": "Skin allograft, single grafts (FIG. 14)", "assay_type": "in vivo, rat", "details": "5 mg/kg recombinant lectin", "method": "In this experiment, 5 mg/kg recombinant lectin was used on rats bearing single grafts and the day of graft rejection was noted."}},
  "data": [
    {"substance": "Lectin: Soluble 14 kD β-galactoside-binding HL-60/placenta lectin of FIG. 1 (SEQ ID NO:2), prepared recombinantly in E. coli", "values": [
      {"measurement": "Clumping of rat lymphocytes", "setting": "[1]", "result": "moderately clumped"},
      {"measurement": "Agglutination of T-cells", "setting": "[2]", "result": "severely agglutinated"},
      {"measurement": "Binding to Inflamed Brain Endothelium", "setting": "[3]", "result": "did not bind"},
      {"measurement": "Effect on binding of rat lymphocytes to lymphoid organ sections", "setting": "[4]", "result": "no noticeable effect"},
      {"measurement": "Binding of T-cells to thymic epithelial cells", "setting": "[5]", "result": "appreciably bound"},
      {"measurement": "primary immune response to pneumococcal polysaccharide (T-independent antigen)", "setting": "[6]; any dose, FIG. 7", "result": "No effect"},
      {"measurement": "primary immune response to T-dependent antigens", "setting": "[6]; higher doses of lectin (15 and 25 μg), FIGS. 6, 8, 9", "result": "significantly lowered"},
      {"measurement": "lymph node cell proliferative responses to GPBP and PPD", "setting": "[7]; lectin-treated rats relative to control, especially days 14 and 21, FIG. 12", "result": "low or absent"},
      {"measurement": "lymph node cell responses to ConA", "setting": "[7]; lectin-treated rats, FIG. 12", "result": "normal or augmented"},
      {"measurement": "antibodies specific for the lectin in sera of treated rats", "setting": "[8]", "result": "did not contain"},
      {"measurement": "effect on established T-cell lines", "setting": "[9]", "result": "no inhibitory effect"},
      {"measurement": "Survivors on Day 16", "setting": "[10]", "result": "0/5"},
      {"measurement": "rejection of the skin allograft", "setting": "[11]", "result": "considerably delayed"}
    ]}
  ]
}
